Assays:
[1] = system: SH-SY5Y; assay: Neuroprotective activity in human SH-SY5Y cells under oxygen and glucose deprived condition assessed as protection against oxidative stress at 5 uM co-incubated for 4 hrs under anaerobic condition measured after 20 hrs by MTT assay relative to control; assay type: functional
[2] = system: SH-SY5Y; assay: Neuroprotective activity in human SH-SY5Y cells under oxygen and glucose deprived condition assessed as cell survival at 5 uM co-incubated for 4 hrs under anaerobic condition measured after 20 hrs by MTT assay relative to control; assay type: functional; details: read-out: Survival
[3] = system: SH-SY5Y; assay: Neuroprotective activity in human SH-SY5Y cells under serum-free condition assessed as protection against potassium-induced toxicity at 5 uM after 24 hrs by MTT assay relative to control; assay type: functional
[4] = system: SH-SY5Y; assay: Neuroprotective activity in human SH-SY5Y cells under serum-free condition assessed as cell survival at 5 uM after 24 hrs by MTT assay in presence of potassium relative to control; assay type: functional; details: read-out: Survival
[5] = system: SH-SY5Y; assay: Neuroprotective activity in human SH-SY5Y cells assessed as inhibition of potassium-induced Ca2+ increase at 10 uM preincubated for 15 mins followed by potassium addition measured for 14 seconds by fluorescence assay relative to control; assay type: functional
[6] = system: SH-SY5Y; assay: Neuroprotective activity in human SH-SY5Y cells under oxygen and glucose deprived condition assessed as protection against oxidative stress at 0.1 uM co-incubated for 4 hrs under anaerobic condition measured after 20 hrs by MTT assay relative to control; assay type: functional
[7] = system: SH-SY5Y; assay: Neuroprotective activity in human SH-SY5Y cells under oxygen and glucose deprived condition assessed as cell survival at 0.1 uM co-incubated for 4 hrs under anaerobic condition measured after 20 hrs by MTT assay relative to control; assay type: functional; details: read-out: Survival
[8] = system: SH-SY5Y; assay: Neuroprotective activity in human SH-SY5Y cells under oxygen and glucose deprived condition assessed as protection against oxidative stress at 0.3 uM co-incubated for 4 hrs under anaerobic condition measured after 20 hrs by MTT assay relative to control; assay type: functional
[9] = system: SH-SY5Y; assay: Neuroprotective activity in human SH-SY5Y cells under oxygen and glucose deprived condition assessed as cell survival at 0.3 uM co-incubated for 4 hrs under anaerobic condition measured after 20 hrs by MTT assay relative to control; assay type: functional; details: read-out: Survival
[10] = system: SH-SY5Y; assay: Neuroprotective activity in human SH-SY5Y cells under serum-free condition assessed as protection against potassium-induced toxicity at 0.3 uM after 24 hrs by MTT assay relative to control; assay type: functional
[11] = system: SH-SY5Y; assay: Neuroprotective activity in human SH-SY5Y cells under serum-free condition assessed as cell survival at 0.3 uM after 24 hrs by MTT assay in presence of potassium relative to control; assay type: functional; details: read-out: Survival
[12] = system: SH-SY5Y; assay: Neuroprotective activity in human SH-SY5Y cells assessed as inhibition of potassium-induced Ca2+ increase preincubated for 15 mins followed by potassium addition measured for 14 seconds by fluorescence assay; assay type: functional, cell-based

CCOC(=O)C1=C(C)NC(c2ccc(Cl)cc2)=CC1c1ccccc1 (stereo unspecified)
Activity [1]: 19.26%
viability at 5 µM [2]: 58.9%
Activity [3]: 36.57%
viability at 5 µM [4]: 69.3%
inhibition at 10 µM [5]: 44.9%

CC(=O)C1=C(C)NC(c2ccccc2)=CC1c1ccccc1 (stereo unspecified)
Activity [1]: 9.06%
viability at 5 µM [2]: 53.9%
Activity [3]: 32.46%
viability at 5 µM [4]: 67.4%
inhibition at 10 µM [5]: 33.8%

CCOC(=O)C1=C(C)NC(c2ccccc2)=CC1c1ccccc1 (stereo unspecified)
Activity [1]: 22.76%
viability at 5 µM [2]: 60.8%
Activity [3]: 34.65%
viability at 5 µM [4]: 67.6%
inhibition at 10 µM [5]: 32.5%

COc1ccc2[nH]cc(CCNC(C)=O)c2c1 [MELATONIN]
Activity [6]: 28.85%
viability at 0.1 µM [7]: 65.8%

COC(=O)C1=C(C)NC(C)=C(C(=O)OC)C1c1ccccc1[N+](=O)[O-] [NIFEDIPINE]
Activity [8]: 12.4%
viability at 0.3 µM [9]: 55%
Activity [10]: 15.76%
viability at 0.3 µM [11]: 58.7%
inhibition at 10 µM [5]: 59.8%

COc1ccc(C2C=C(c3ccccc3)NC(C)=C2C(=O)SC(C)(C)C)cc1 (stereo unspecified)
Activity [1]: 17.38%
viability at 5 µM [2]: 57.6%
Activity [3]: 31.27%
viability at 5 µM [4]: 66.7%
IC50 [12]: 26.8 µM
inhibition [12]: Dose-dependent effect
inhibition at 10 µM [5]: 52.3%

CC1=C(C(=O)SC(C)(C)C)C(c2ccc(Br)cc2)C=C(c2ccc(C)cc2)N1 (stereo unspecified)
Activity [1]: 21.83%
viability at 5 µM [2]: 60.3%
Activity [3]: 34.46%
viability at 5 µM [4]: 67.2%
inhibition at 10 µM [5]: 35.4%

O=C1CCCC2=C1C(c1ccccc1)C=C(c1ccccc1)N2 (stereo unspecified)
Activity [1]: 26.8%
viability at 5 µM [2]: 62.1%
Activity [3]: 28.23%
viability at 5 µM [4]: 66.4%
inhibition at 10 µM [5]: 41.2%

CCOC(=O)C1=C(C)NC(c2ccc(C)cc2)=CC1c1cccs1 (stereo unspecified)
Activity [1]: 31.04%
viability at 5 µM [2]: 64.7%
Activity [3]: 50.73%
viability at 5 µM [4]: 75.6%
inhibition at 10 µM [5]: 36.6%

CC1=C(C(=O)SC(C)(C)C)C(/C(C)=C/c2ccccc2)C=C(c2ccccc2)N1 (stereo unspecified)
Activity [1]: 35.82%
viability at 5 µM [2]: 63.9%
Activity [3]: 35.26%
viability at 5 µM [4]: 69%
inhibition at 10 µM [5]: 40%

CCOC(=O)C1=C(CC)NC(c2ccccc2)=CC1c1ccccc1 (stereo unspecified)
Activity [1]: 17.69%
viability at 5 µM [2]: 57.6%
Activity [3]: 31.37%
viability at 5 µM [4]: 67.3%
IC50 [12]: 12.8 µM
inhibition [12]: Dose-dependent effect
inhibition at 10 µM [5]: 53.8%

CC1=C(C(=O)SC(C)(C)C)C(c2ccc(C)cc2)C=C(c2ccccc2)N1 (stereo unspecified)
Activity [1]: 31.16%
viability at 5 µM [2]: 64.7%
Activity [3]: 30.44%
viability at 5 µM [4]: 67.4%
inhibition at 10 µM [5]: 36.8%

CC1=C(C(=O)SC(C)(C)C)C(c2ccc(C)cc2)C=C(c2ccc(C)cc2)N1 (stereo unspecified)
Activity [1]: 12.66%
viability at 5 µM [2]: 56%
Activity [3]: 36.24%
viability at 5 µM [4]: 69.8%
inhibition at 10 µM [5]: 12.6%

CC1=C(C(=O)SC(C)(C)C)C(c2ccccc2)C=C(c2ccccc2)N1 (stereo unspecified)
Activity [1]: 24.91%
viability at 5 µM [2]: 61.5%
Activity [3]: 34.13%
viability at 5 µM [4]: 68%
inhibition at 10 µM [5]: 35.1%
